Experimental data published in paper PMC10455339, “Combining the Peptide RWQWRWQWR and an Ethanolic Extract of Bidens pilosa Enhances the Activity against Sensitive and Resistant Candida albicans and C. auris Strains” (Journal of Fungi, 2023).
Like-named read-outs stand apart in the source and are kept apart here. Ends that are not written are not given here.

Tests used:
[1] = tested on: primary culture of human foreskin fibroblasts; type: cell-based; conditions: 2 h
Method: The toxicity of the ethanolic extract of B. pilosa, the palindromic peptide, and their combinations was evaluated in a primary culture of human foreskin fibroblasts by the MTT (tetrazolium salt, Sigma-Aldrich) assay, with modifications. Briefly, cells were seeded in 96-well plates at a density of 1 × 10^4 cells and 100 μL per well and allowed to adhere and proliferate for 24 h RPMI medium at 37 °C and 5% CO2.
Following this, the complete medium was replaced with incomplete medium (without 10% fetal bovine serum) for an additional 24 h in order to achieve synchronization. The cells were then incubated at 37 °C and 5% CO2 for 2 h with 100 μL of B. pilosa extract (31.25–2000 µg/mL), peptide at the concentrations evaluated (3.12–200 μg/mL), and additive or synergistic combinations (C 1: 25/250 µg/mL, C 2: 50/62.5 µg/mL, C 3: 100/125 µg/mL, and C 4: 25/31.25 µg/mL). The culture medium was removed, and 100 μL of incomplete medium with 10% MTT was added and incubated at 37 °C and 5% CO2 for 4 h. […] Following a 30 min incubation at 37 °C, the absorbance at 575 nm was measured, using the BioTek ELx800 absorbance reader (Agilent, Santa Clara, USA). […] In addition, the half-maximal inhibitory concentration (IC50) was calculated by plotting viability versus log (concentration).

C. albicans SC5314 [2] = test: microbe, parasite or virus in culture; type: cell-based, Candida albicans
Method: (§1) For the determination of the MICs, the guidelines of the Clinical Laboratory Standards Institute (CLSI BMD-M27-A4) were used with some modifications. Serial dilutions were made, for peptides from 6.25 to 200 µg/mL and for extracts from 31.2 to 2000 µg/mL, with RPMI 1640 medium in a 96-well microdilution plate (100 µL), and then 100 µL of the adjusted inoculum (0.5–2.5 × 10^3 cells/mL) was added and incubated at 37 °C, and visual and spectrophotometric reading (595 nm) was performed at 48 h. Controls: growth control in RPMI or DMSO, control with a known antifungal: FLC, C. albicans SC5314 (1 µg/mL), C. albicans 256 (64 µg/mL), C. auris 435 (8 µg/mL), and C. auris 537 (128 µg/mL), sterility controls correspond to RPMI medium and SS. The MIC was defined as the minimum concentration of peptide or extract that inhibited 50% of growth compared to the control. To determine the minimal fungicidal concentration (MFC), from the concentrations where no growth was observed, including the controls, a subculture was made on SDA and incubated for 24 h at 37 °C. The MFC was defined as the minimum concentration of peptide or extract that eliminated 100% of the growth compared to the control (n = 3).

C. auris 435 = tested on: C. auris 435
Method: (§2) This was performed using the checkerboard test, with some adjustments. Briefly, peptide or extract with FLC, peptide with extract, and extract, peptide, and FLC (final concentrations: 0, 0.06, 0.12, 0.25, 0.50, 1, and 2 times the MIC) were mixed. […] The fractional inhibitory concentration index (FIC I) was calculated as follows: [A/MIC A] + [P/MIC P] = FIC I, where MIC A and MIC P are the MICs of the individual peptide, extract, and/or antifungal. A and P are the MICs of the same, but in combination.
(§3) The combinations were classified as synergistic (FIC I ≤ 0.5), additive (FIC I > 0.5–1), indifferent (FIC I > 1 < 4), or antagonistic (FIC I > 4).

C. albicans SC5314 [3] = tested on: C. albicans SC5314
Method: as §2, §3

C. albicans 256 [4] = tested on: C. albicans 256
Method: as §2, §3

C. auris 537 [5] = tested on: C. auris 537
Method: as §2, §3

C. albicans 256 [6] = conditions: previously published, cited from earlier work
Method: (§4) Table 5 Synergy test. Combination of R-1-R with FLC against C. albicans and C. auris. | column: MICR-1-R; MICFLC; R-1-R; FLC; FIC Index; MICR-1-R/R-1-R; MICFLC/FLC || Initially, the antifungal activity of mixtures of R-1-R/FLC against the C. albicans and C. auris strains was evaluated (Table 5). […] The MIC value of FLC in C. albicans SC5314 was reduced by a factor of 2, while that in C. albicans 256 was reduced by a factor of 8.

C. auris 537 [7] = conditions: previously published, cited from earlier work
Method: as §4

human red blood cells = test: Hemolytic activity assay; type: cell-based; conditions: positive control, Tween-20 (20% v/v) in PBS
Method: The hemolytic activity of the ethanolic extract of B. pilosa, palindromic peptide, and their combinations was analyzed on human red blood cells. Briefly, 5 mL of peripheral blood from a healthy individual was collected in an EDTA tube and centrifuged at 2500 rpm for 7 min. The erythrocyte-rich fraction was suspended in PBS and washed twice by centrifugation. Then, 100 µL of the B. pilosa extracts (15.62–2000 µg/mL), palindromic peptide (1.56–200 µg/mL), or additive or synergistic combinations of peptide and plant extract (combination 1: 25/250 µg/mL, combination 2: 50/62.5 µg/mL, combination 3: 100/125 µg/mL, and combination 4: 25/31.25 µg/mL) was mixed with 100 µL of erythrocytes (2% hematocrit) in round-bottom 96-well plates and incubated at 37 °C for 2 h. Subsequently, the reaction was stopped by centrifuging for 10 min at 2500 rpm. To measure hemoglobin levels, 100 µL of the supernatant containing the hemoglobin released from lysed erythrocytes was transferred to a 96-well plate with a flat bottom, and the absorbance was measured at 450 nm. PBS was used as a negative control, while Tween-20 (20% v/v) in PBS was used as a positive control (n = 3).

C. albicans 256-PUJ-HUSI = test: Antifungal activity (MIC/MFC), broth microdilution; type: cell-based, Candida albicans; conditions: Candida albicans, 256PUJHUSI, FLC-resistant isolate, n = 3
Method: as §1

C. auris 435-PUJ-HUSI = test: Antifungal activity (MIC/MFC), broth microdilution; type: cell-based, Candida auris; conditions: Candidozyma auris, 435PUJHUSI, FLC-sensitive isolate, n = 3
Method: as §1

C. auris 537-PUJ-HUSI = test: Antifungal activity (MIC/MFC), broth microdilution; type: cell-based, Candida auris; conditions: Candidozyma auris, 537PUJHUSI, FLC- and AmB-resistant isolate, n = 3
Method: as §1

C. albicans = conditions: cited from earlier work
Text: Antifungal activity of other phenolic acids, such as chlorogenic acid, has been reported against Candida spp. resistant to FLC, generating a death process similar to apoptosis.

[8] = B. pilosa extract combined with FLC
[9] = B. pilosa extract combined with FLC, checkerboard, 37 °C, 48 h
[10] = B. pilosa extract, R-1-R and FLC combined
[11] = B. pilosa extract, R-1-R and FLC combined, checkerboard, 37 °C, 48 h
[12] = R-1-R combined with FLC, checkerboard, 37 °C, 48 h
[13] = CLSI M27-A4 modified, RPMI 1640, 37 °C, 48 h, MIC = 50% growth inhibition, read-out: MIC
[14] = subculture on SDA 24 h 37 °C, MFC = eliminates 100% of growth, read-out: MFC

RWQWRWQWR-NH2 [Peptide R-1-R] gave an IC50 [1] of 175.9 µg/mL and an MIC (C. albicans SC5314 [2]; SC5314, 48 h) of 67 µM.
For `OC(Cn1cncn1)(Cn1cncn1)c1ccc(F)cc1F` [FLC, fluconazole], the “MIC alone/MIC in combination (factor of potentiation)” value (shortened to “MIC alone/MIC in combination”) (C. auris 435; [8]) was 1, the “MIC in combination (E, FLC)” value (C. auris 435; [9]) was 8 µg/mL and the “MIC alone/MIC in combination” value (C. auris 435; [10]) was 4. For the same compound, the “MIC in combination (E, R-1-R, FLC)” value (C. auris 435; [11]) was 1 µg/mL, the “MIC alone/MIC in combination” value (C. auris 435; R-1-R combined with FLC) was 4 and the “MIC in combination (R-1-R, FLC)” value (C. auris 435; [12]) was 2 µg/mL. For the same compound, the “MIC alone/MIC in combination” value (C. albicans SC5314 [3]; [8]) was 2, the “MIC in combination (E, FLC)” value (C. albicans SC5314 [3]; [9]) was 0.125 µg/mL and the “MIC alone/MIC in combination” value (C. albicans SC5314 [3]; [10]) was 8. The “MIC in combination (E, R-1-R, FLC)” value (C. albicans SC5314 [3]; [11]) was 0.06 µg/mL, the “MIC alone/MIC in combination” value (C. albicans SC5314 [3]; R-1-R combined with FLC) was 2 and the “MIC in combination (R-1-R, FLC)” value (C. albicans SC5314 [3]; [12]) was 0.0625 µg/mL. The “MIC alone/MIC in combination” value (C. albicans 256 [4]; [8]) was 4, the “MIC in combination (E, FLC)” value (C. albicans 256 [4]; [9]) was 32 µg/mL and the “MIC alone/MIC in combination” value (C. albicans 256 [4]; [10]) was 8. The “MIC in combination (E, R-1-R, FLC)” value (C. albicans 256 [4]; [11]) was 4 µg/mL, the “MIC alone/MIC in combination” value (C. auris 537 [5]; [8]) was 4 and the “MIC in combination (E, FLC)” value (C. auris 537 [5]; [9]) was 32 µg/mL. For the same compound, the “MIC alone/MIC in combination” value (C. auris 537 [5]; [10]) was 16, the “MIC in combination (E, R-1-R, FLC)” value (C. auris 537 [5]; [11]) was 8 µg/mL and the “MIC alone/MIC in combination” value (C. albicans 256 [6]; R-1-R combined with FLC) was 8. For the same compound, the “MIC in combination (R-1-R, FLC)” value (C. albicans 256 [6]; R-1-R combined with FLC) was 4 µg/mL, the “MIC of the agent alone (MICR-1-R, MICFLC)” value (C. albicans 256 [6]; checkerboard R-1-R + FLC) was 32 µg/mL and the “MIC alone/MIC in combination” value (C. auris 537 [7]; R-1-R combined with FLC) was 8. The “MIC in combination (R-1-R, FLC)” value (C. auris 537 [7]; R-1-R combined with FLC) was 8 µg/mL and the “MIC of the agent alone (MICR-1-R, MICFLC)” value (C. auris 537 [7]; checkerboard R-1-R + FLC) was 64 µg/mL.
With Tween-20 the “Hemolysis (in words)” value (human red blood cells) was “completely lysed the red blood cells”.
Work on `C[C@@H]1O[C@@H](OC[C@H]2O[C@@H](Oc3c(-c4ccc(O)c(O)c4)oc4cc(O)cc(O)c4c3=O)[C@H](O)[C@@H](O)[C@@H]2O)[C@H](O)[C@H](O)[C@H]1O` [Rutin] yielded an MIC (C. albicans 256-PUJ-HUSI; [13]) of over 2000 µg/mL, an MFC (C. albicans 256-PUJ-HUSI; [14]) of over 2000 µg/mL and an MIC (C. auris 435-PUJ-HUSI; [13]) of over 2000 µg/mL. For the same compound, the MFC (C. auris 435-PUJ-HUSI; [14]) was over 2000 µg/mL, the MIC (C. auris 537-PUJ-HUSI; [13]) was over 2000 µg/mL and the MFC (C. auris 537-PUJ-HUSI; [14]) was over 2000 µg/mL. The Reported active concentration (C. albicans) was 1000 µg/mL, the MIC (C. albicans SC5314 [2]; Candida albicans, SC5314, CLSI M27-A4 modified, RPMI 1640, 37 °C, 48 h, MIC = 50% growth inhibition, n = 3, read-out: MIC) was over 2000 µg/mL and the MFC (C. albicans SC5314 [2]; Candida albicans, SC5314, subculture on SDA 24 h 37 °C, MFC = eliminates 100% of growth, n = 3, read-out: MFC) was over 2000 µg/mL.
